The target in assay [1] is FGFR3-BAIAP2L1 Ba/F3 cells (Homo sapiens, UniProt P22607). As to the kind of experiment: Ba/F3 cell viability assay (CellTiter-Glo 2.0), FGFR3-BAIAP2L1 Ba/F3. Type of assay: cell-based. A digest of the protocol: (§1)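 Viability read as ATP luminescence (CellTiter-Glo 2.0) after 48 h compound exposure, normalized to DMSO-treated cells and fitted with a 4-parameter curve for IC50. Cells: Ba/F3 dependent on FGFR1-BCR or FGFR3-BAIAP2L1 fusion kinase; top dose 30 μM, 10-fold steps, 9 doses in triplicate.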
Sequence of FGFR3-BAIAP2L1 Ba/F3 cells (P22607 23-806 limits assumed, change not shown): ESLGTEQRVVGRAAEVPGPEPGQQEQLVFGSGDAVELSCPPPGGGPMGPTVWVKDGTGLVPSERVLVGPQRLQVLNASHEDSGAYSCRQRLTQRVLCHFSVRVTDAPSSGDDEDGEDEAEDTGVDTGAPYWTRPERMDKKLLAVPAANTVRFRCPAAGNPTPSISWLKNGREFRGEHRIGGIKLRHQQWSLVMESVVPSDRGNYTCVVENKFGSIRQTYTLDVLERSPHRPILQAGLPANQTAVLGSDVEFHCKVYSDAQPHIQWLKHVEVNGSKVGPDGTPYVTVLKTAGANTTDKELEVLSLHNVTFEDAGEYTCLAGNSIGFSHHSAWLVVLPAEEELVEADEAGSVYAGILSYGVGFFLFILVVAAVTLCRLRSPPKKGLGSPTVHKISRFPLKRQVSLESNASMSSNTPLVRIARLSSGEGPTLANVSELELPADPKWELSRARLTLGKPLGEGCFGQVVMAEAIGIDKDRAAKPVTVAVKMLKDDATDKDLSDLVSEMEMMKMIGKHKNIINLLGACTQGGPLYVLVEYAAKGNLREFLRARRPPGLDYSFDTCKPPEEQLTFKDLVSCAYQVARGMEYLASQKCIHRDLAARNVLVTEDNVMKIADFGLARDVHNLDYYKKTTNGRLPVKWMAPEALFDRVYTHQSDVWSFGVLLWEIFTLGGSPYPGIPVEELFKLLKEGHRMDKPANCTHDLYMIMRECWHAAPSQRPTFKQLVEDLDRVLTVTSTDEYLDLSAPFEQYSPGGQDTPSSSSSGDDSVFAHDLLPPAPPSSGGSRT

Assay [2] deals with KG-1 cells (FGFR1-fusion). As to the kind of experiment: KG-1 cancer cell line cell viability assay (CellTiter-Glo 2.0). Type of assay: cell-based. As to conditions: Homo sapiens, 72 hours, Cell Titer Glo 2.0. A digest of the protocol:
(§2)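 Viability was measured as cellular ATP by CellTiter-Glo 2.0 luminescence after 72 h compound exposure, using nine 10-fold doses from 30 μM, in triplicate. Cells were plated at 10,000/well in RPMI1640 with 10% FBS the day before dosing. Signal was expressed as % of DMSO-treated control, and IC50 came from a 4-parameter fit.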

Assay [3] addresses FGFR1-BCR Ba/F3 cells (Homo sapiens, UniProt P11362). As to the kind of experiment: Ba/F3 cell viability assay (CellTiter-Glo 2.0), FGFR1-BCR Ba/F3. The assay is classed as cell-based. Summed up:
as §1

The target of assay [4] is FGFR3 (V555M) (Homo sapiens (Human), UniProt P22607, V555M). Kind of assay: Kinase assay, binding constants (Kd), kinase-tagged T7 phage, qPCR. The note with it: V555M mutant. A digest of the protocol:
(§3)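 Using T7 phage lysates from BL21-derived E. coli, compounds at 0.9% final DMSO competed for kinase binding to ligand-bearing magnetic beads. After elution, qPCR measured remaining kinase, and Kds were fitted by non-linear least squares with the Hill slope fixed at −1.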

The target in assay [5] is FGFR2 (Homo sapiens (Human), UniProt P21802). Described as above. A digest of the protocol:
as §3

In assay [6] the target is FGFR1 (Homo sapiens (Human), UniProt P11362). Described as above. A digest of the protocol: as §3
Sequence of FGFR1 (P11362 22-822): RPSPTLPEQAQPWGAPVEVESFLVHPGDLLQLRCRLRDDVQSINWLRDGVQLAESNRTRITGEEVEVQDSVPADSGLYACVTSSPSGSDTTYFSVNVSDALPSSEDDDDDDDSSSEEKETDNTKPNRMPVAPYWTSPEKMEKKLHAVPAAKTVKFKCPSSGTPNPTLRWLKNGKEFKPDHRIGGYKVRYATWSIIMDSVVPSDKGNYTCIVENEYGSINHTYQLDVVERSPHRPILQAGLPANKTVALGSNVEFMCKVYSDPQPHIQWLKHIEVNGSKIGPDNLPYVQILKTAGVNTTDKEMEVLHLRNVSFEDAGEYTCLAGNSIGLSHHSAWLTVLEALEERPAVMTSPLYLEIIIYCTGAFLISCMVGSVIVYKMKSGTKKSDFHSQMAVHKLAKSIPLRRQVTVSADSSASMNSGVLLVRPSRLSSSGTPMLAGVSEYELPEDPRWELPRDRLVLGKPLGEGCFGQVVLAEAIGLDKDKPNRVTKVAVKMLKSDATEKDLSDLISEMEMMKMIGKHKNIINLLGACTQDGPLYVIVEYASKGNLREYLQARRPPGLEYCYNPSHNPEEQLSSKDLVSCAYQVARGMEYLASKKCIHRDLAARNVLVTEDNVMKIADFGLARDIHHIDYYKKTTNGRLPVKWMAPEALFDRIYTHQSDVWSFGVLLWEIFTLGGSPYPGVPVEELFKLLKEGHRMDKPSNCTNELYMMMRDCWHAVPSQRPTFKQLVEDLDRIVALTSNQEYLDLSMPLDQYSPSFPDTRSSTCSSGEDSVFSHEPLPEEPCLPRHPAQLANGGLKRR
In assay [7] the target is FGFR3 (Homo sapiens (Human), UniProt P22607). The description is as above. A digest of the protocol:
as §3

Assay [8] has as its target FGFR4 (Homo sapiens (Human), UniProt P22455). The description is as above. A digest of the protocol:
as §3

In assay [9] the test system is UM-UC-14 cells (FGFR3(S249C)). Kind of assay: UM-UC-14 cancer cell line cell viability assay (CellTiter-Glo 2.0). The assay is classed as cell-based. As to conditions: UMUC14, 72 hours, Cell Titer Glo 2.0. An excerpt: Experimental Purpose: To detect the change of intracellular ATP by Cell Titer-Glo® and to evaluate the inhibitory effect of the compounds on cancer cell lines by determining the in vitro IC50 value of the compounds.
Cell Titer-Glo® 2.0 Luminescent cell viability assay reagent was purchased from Promega (Madison, WI). RT112/84 and KG-1 cell lines were purchased from American Type Culture Collection (Manassas, VA). UM-UC-14 cell line was purchased from Sigma (St. Louis, MO). RT112/84, UM-UC-14, and KG-1 cells were cultured in RPMI1640 media supplemented with 10% fetal bovine serum. Cultures were maintained at 37° C. in a humidified atmosphere of 5% C02 and 95% air.
Cell Viability Assay Procedure: Cells were plated in 96-well clear bottom/white plates (Corning #3903) at 10,000 cells/well in 100 μl of media, incubated overnight. The next day, test compound DMSO stock solutions were made at 10 mM and 2 μM final concentration. Compounds were then added to cells in a 9-dose, 10-fold dilution series starting at 30 μM with an HP 300e Digital Dispenser (each dose was applied in triplicate). DMSO was backfilled to each well up to 301 nL total volume of test compound+DMSO, and a total of 301 nL DMSO was added to a control/no test compound well in triplicate. The cells in cell culture plates were incubated with the compounds at 37° C. and 5% C02 for 72 hours. Then 50 μl of Cell Titer Glo 2.0 reagent was added to each well of the cell culture plates. The contents were covered from light and mixed on an orbital shaker at room temperature for 10 min. Luminescence was recorded by a Synergy H1 Microplate Reader (Biotek, Winooski, VT). Cells were assessed as a percentage of DMSO only treated control cells. Curves were plotted and IC50 values were calculated using the GraphPad Prism 8 program based on a sigmoidal dose-response equation (4 parameter).

Assay [10] concerns RT112/84 cells (FGFR3-fusion). Kind of assay: RT112/84 cancer cell line cell viability assay (CellTiter-Glo 2.0). As to conditions: Homo sapiens, 72 hours, Cell Titer Glo 2.0. The assay is classed as cell-based. Summed up:
as §2

Where [11] appears, read: FGFR3 > FGFR1 selectivity ratio in Ba/F3 FGFR fusion cell based assays.
The mark [12] stands for this setting: read-out: Ba/F3 Cells FGFR3 (IC50 nM); FGFR3-BAIAP2L1 Ba/F3 cells, 48 hours, Cell Titer Glo 2.0.
Where [13] appears, read: read-out: Ba/F3 Cells FGFR1 (IC50 nM), 48 hours, Cell Titer Glo 2.0.
Where [14] appears, read: FGFR3-BAIAP2L1 Ba/F3 cells, 48 hours, Cell Titer Glo 2.0; read-out: Ba/F3 Cells FGFR3 (IC50 nM).
[15] abbreviates: 48 hours, Cell Titer Glo 2.0, read-out: Ba/F3 Cells FGFR1 (IC50 nM).

Read-outs that look alike come from different tables or passages of the source.

Results on 9 compounds are retold here after patent US20240109865A1, “INDAZOLE COMPOUNDS AS KINASE INHIBITORS” (TYRA BIOSCIENCES, INC., priority 2020, published 2024).

Sequence of FGFR3 (V555M) (P22607 23-806 V555M): as the sequence (P22607 23-806 limits assumed, change not shown) above, with V533M counted along it
Sequence of FGFR4 (P22455 22-802): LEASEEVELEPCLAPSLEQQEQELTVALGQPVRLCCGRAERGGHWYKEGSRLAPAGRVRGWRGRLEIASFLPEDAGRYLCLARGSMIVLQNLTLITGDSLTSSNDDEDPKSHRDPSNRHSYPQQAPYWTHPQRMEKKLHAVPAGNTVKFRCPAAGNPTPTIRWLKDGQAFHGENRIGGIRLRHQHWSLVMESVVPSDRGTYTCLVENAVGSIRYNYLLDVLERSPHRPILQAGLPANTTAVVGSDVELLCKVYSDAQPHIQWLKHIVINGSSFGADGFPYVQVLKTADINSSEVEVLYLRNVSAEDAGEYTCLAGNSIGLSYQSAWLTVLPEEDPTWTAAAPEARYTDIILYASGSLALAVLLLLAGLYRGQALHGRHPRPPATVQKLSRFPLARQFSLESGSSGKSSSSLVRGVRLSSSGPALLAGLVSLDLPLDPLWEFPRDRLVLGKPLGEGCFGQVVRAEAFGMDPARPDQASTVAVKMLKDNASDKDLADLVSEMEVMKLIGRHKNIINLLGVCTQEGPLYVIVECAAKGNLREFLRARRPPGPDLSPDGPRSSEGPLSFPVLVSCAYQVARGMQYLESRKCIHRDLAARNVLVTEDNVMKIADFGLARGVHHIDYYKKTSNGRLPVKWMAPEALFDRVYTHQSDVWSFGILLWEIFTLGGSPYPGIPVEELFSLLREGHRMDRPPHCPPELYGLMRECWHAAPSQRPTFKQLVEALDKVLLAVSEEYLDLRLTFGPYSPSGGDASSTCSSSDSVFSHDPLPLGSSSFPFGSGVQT
Sequence of FGFR2 (P21802 22-821): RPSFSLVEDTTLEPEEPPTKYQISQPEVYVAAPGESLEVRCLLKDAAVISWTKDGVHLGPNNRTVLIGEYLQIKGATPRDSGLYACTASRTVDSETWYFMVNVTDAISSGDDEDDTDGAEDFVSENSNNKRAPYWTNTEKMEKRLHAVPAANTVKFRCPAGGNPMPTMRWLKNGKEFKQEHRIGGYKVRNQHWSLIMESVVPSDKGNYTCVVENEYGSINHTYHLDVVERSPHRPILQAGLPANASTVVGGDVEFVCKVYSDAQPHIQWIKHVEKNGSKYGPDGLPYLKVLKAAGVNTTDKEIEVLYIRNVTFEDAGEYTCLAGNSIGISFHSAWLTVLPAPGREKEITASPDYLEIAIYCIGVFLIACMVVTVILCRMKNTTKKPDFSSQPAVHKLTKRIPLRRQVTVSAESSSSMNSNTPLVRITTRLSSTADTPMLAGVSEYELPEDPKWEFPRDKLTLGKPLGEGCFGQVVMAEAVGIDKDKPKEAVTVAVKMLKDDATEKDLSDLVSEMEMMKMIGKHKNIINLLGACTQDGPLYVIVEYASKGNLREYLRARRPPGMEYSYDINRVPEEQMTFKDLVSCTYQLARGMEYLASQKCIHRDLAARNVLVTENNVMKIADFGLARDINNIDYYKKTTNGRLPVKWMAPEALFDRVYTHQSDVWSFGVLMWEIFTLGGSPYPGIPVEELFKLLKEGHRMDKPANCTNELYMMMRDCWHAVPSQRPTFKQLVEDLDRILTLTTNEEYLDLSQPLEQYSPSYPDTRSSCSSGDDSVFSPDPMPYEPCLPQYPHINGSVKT
Sequence of FGFR1-BCR Ba/F3 cells (P11362 22-822 limits assumed, change not shown): as the sequence (P11362 22-822) above
Sequence of FGFR3 (P22607 23-806): as the sequence (P22607 23-806 limits assumed, change not shown) above

In the case of `C[C@@H](Oc1ccc2[nH]nc(-c3cnc(N4CCN(S(C)(=O)=O)CC4)nc3)c2c1)c1c(Cl)cncc1Cl` [Example 14, 5-[(1R)-1-(3,5-Dichloro-4-pyridyl)ethoxy]-3-[2-(4-methylsulfonylpiperazin-1-yl)pyrimidin-5-yl]-1H-indazole], in [1] (setting [11]), the “Ba/F3 FGFR1/FGFR3 Selectivity” value is given as 18. In addition, the IC50 in assay [1] (setting [12]) was 1 to 20 nM; in assay [2] it was 100 to 300 nM; in [3] (setting [13]) it was more than 300 nM; in assay [9] it was 20 to 100 nM; in [10], 1 to 20 nM. Also, the Kd was in the range of 1 to 20 nM in assay [4]; 20 to 100 nM in assay [5]; 1 to 20 nM in assay [6]; 1 to 20 nM in assay [7]; 1 to 20 nM in [8].
Take `C[C@@H](Oc1ccc2[nH]nc(-c3cnc(N4CCN(C(=O)N5CCN(C)CC5)CC4)nc3)c2c1)c1c(Cl)cncc1Cl` [Example 15, [4-[5-[5-[(1R)-1-(3,5-dichloro-4-pyridyl)ethoxy]-1H-indazol-3-yl]pyrimidin-2-yl]piperazin-1-yl]-(4-methylpiperazin-1-yl)methanone]: the “Ba/F3 FGFR1/FGFR3 Selectivity” value in assay [1] (setting [11]) is recorded as 10. In addition, the IC50 in [1] (setting [12]) is 20 to 100 nM; in [2], 20 to 100 nM; in assay [3] (setting [13]), more than 300 nM; in assay [9] it was 1 to 20 nM; in assay [10], 1 to 20 nM. In addition, the dissociation constant (Kd) in assay [4], in assay [5], in assay [6], in assay [7] and in [8] was 1 to 20 nM each time.
In the case of `C[C@@H](Oc1ccc2[nH]nc(-c3ccc(N4CC5CC(C4)N5)nc3)c2c1)c1c(Cl)cncc1Cl` [Example 16, 3-[6-(3,6-Diazabicyclo[3.1.1]heptan-3-yl)-3-pyridyl]-5-[(1R)-1-(3,5-dichloro-4-pyridyl)ethoxy]-1H-indazole], the IC50 is 20 to 100 nM in [1] (setting [14]); 20 to 100 nM in [2]; more than 300 nM in assay [3] (setting [15]); 1 to 20 nM in [9]; 1 to 20 nM in assay [10]. Further, the “Ba/F3 FGFR1/FGFR3 Selectivity” value in assay [1] (setting [11]) worked out at 14. For the same compound, the Kd in assay [4], in [5], in assay [6], in [7] and in assay [8] was 1 to 20 nM in each case.
For the compound `C[C@@H](Oc1ccc2[nH]nc(-c3cnc(N4CCN(C(=O)N(C)C)CC4)nc3)c2c1)c1c(Cl)cncc1Cl` [Example 19, 4-[5-[5-[(1R)-1-(3,5-Dichloro-4-pyridyl)ethoxy]-1H-indazol-3-yl]pyrimidin-2-yl]-N,N-dimethyl-piperazine-1-carboxamide], the “Ba/F3 FGFR1/FGFR3 Selectivity” value in assay [1] (setting [11]) is on record as 15. Besides, the IC50 in [1] (setting [12]) lay within 1 to 20 nM; in [2] it was 100 to 300 nM; in assay [3] (setting [13]) it was 100 to 300 nM; in assay [9], 1 to 20 nM; in assay [10] it was 1 to 20 nM. Moreover, the Kd in [4] is 1 to 20 nM; in [5] it was 100 to 300 nM; in assay [6] it was 1 to 20 nM; in assay [7] it was 1 to 20 nM; in assay [8], 1 to 20 nM.
In the case of `C[C@@H](Oc1ccc2[nH]nc(-c3ccc(N4CC5CC(C4)N5S(C)(=O)=O)nc3)c2c1)c1c(Cl)cncc1Cl` [Example 20, 5-[(1R)-1-(3,5-dichloro-4-pyridyl)ethoxy]-3-[6-(6-methylsulfonyl-3,6-diazabicyclo[3.1.1]heptan-3-yl)-3-pyridyl]-1H-indazole], the IC50 in assay [1] (setting [14]) was 20 to 100 nM; in [2], 100 to 300 nM; in assay [3] (setting [15]) it was more than 300 nM; in assay [9] it was 20 to 100 nM; in assay [10], 20 to 100 nM. In addition, the “Ba/F3 FGFR1/FGFR3 Selectivity” value in [1] (setting [11]) was found to be 15. Besides, the Kd in [4] fell in the range of 1 to 20 nM; in [5], 20 to 100 nM; in assay [6], 20 to 100 nM; in [7], 1 to 20 nM; in assay [8] it was 1 to 20 nM.
Turning to `C[C@@H](Oc1ccc2[nH]nc(-c3ccc(N4CCNC5(CC5)C4)nc3)c2c1)c1c(Cl)cncc1Cl` [Example 21, 3-[6-(4,7-diazaspiro[2.5]octan-7-yl)-3-pyridyl]-5-[(1R)-1-(3,5-dichloro-4-pyridyl)ethoxy]-1H-indazole], in [1] (setting [11]), the “Ba/F3 FGFR1/FGFR3 Selectivity” value amounted to 13. Moreover, the IC50 in assay [1] (setting [12]) fell in the range of 1 to 20 nM; in assay [2], 20 to 100 nM; in assay [3] (setting [13]), 100 to 300 nM; in assay [9] it was 1 to 20 nM; in [10] it was 1 to 20 nM. The equilibrium dissociation constant (Kd) in assay [4], in assay [5], in assay [6], in assay [7] and in [8] was 1 to 20 nM throughout.
`C[C@@H](Oc1ccc2[nH]nc(-c3ccc(N4CCN(S(C)(=O)=O)C5(CC5)C4)nc3)c2c1)c1c(Cl)cncc1Cl` [Example 22, 5-[(1R)-1-(3,5-dichloro-4-pyridyl)ethoxy]-3-[6-(4-methylsulfonyl-4,7-diazaspiro[2.5]octan-7-yl)-3-pyridyl]-1H-indazole]: the “Ba/F3 FGFR1/FGFR3 Selectivity” value in [1] (setting [11]) worked out at 11. Also, the IC50 was 1 to 20 nM in assay [1] (setting [12]); 20 to 100 nM in [2]; 100 to 300 nM in assay [3] (setting [13]); 1 to 20 nM in assay [9]; 1 to 20 nM in assay [10]. The equilibrium dissociation constant (Kd) in [4] is 1 to 20 nM; in assay [5], 20 to 100 nM; in [6], 20 to 100 nM; in assay [7], 1 to 20 nM; in assay [8], 1 to 20 nM.
Turning to `C[C@@H](Oc1ccc2[nH]nc(-c3ccc(N4CCN(C(=O)N(C)C)C5(CC5)C4)nc3)c2c1)c1c(Cl)cncc1Cl` [Example 23, (R)-7-(5-(5-(1-(3,5-dichloropyridin-4-yl)ethoxy)-1H-indazol-3-yl)pyridin-2-yl)-N,N-dimethyl-4,7-diazaspiro[2.5]octane-4-carboxamide], in assay [1] (setting [11]), the “Ba/F3 FGFR1/FGFR3 Selectivity” value was found to be 16. The IC50 in assay [1] (setting [12]) lay within 1 to 20 nM; in assay [2], 100 to 300 nM; in assay [3] (setting [13]) it was 100 to 300 nM; in assay [9], 1 to 20 nM; in assay [10] it was 1 to 20 nM. The Kd was 20 to 100 nM in assay [4]; more than 300 nM in [5]; more than 300 nM in assay [6]; 100 to 300 nM in [7]; more than 300 nM in assay [8].
In the case of `C[C@@H](Oc1ccc2[nH]nc(-c3ccc(N4CCN(C(N)=O)C5(CC5)C4)nc3)c2c1)c1c(Cl)cncc1Cl` [Example 24, 7-[5-[5-[(1R)-1-(3,5-dichloro-4-pyridyl)ethoxy]-1H-indazol-3-yl]-2-pyridyl]-4,7-diazaspiro[2.5]octane-4-carboxamide], in assay [1] (setting [11]), the “Ba/F3 FGFR1/FGFR3 Selectivity” value came to 18. Moreover, the IC50 lay within 1 to 20 nM in [1] (setting [12]); 20 to 100 nM in [2]; 20 to 100 nM in assay [3] (setting [13]); 1 to 20 nM in assay [9]; 1 to 20 nM in assay [10]. In addition, the Kd in assay [4], in assay [5], in assay [6], in assay [7] and in assay [8] was 1 to 20 nM throughout.
